# Test system: caspase-14
# Experiment: caspase-14 production in amino acid-depleted epidermal keratinocytes (ELISA)
# Format: cell-based
# Details: human skin-simulating medium 2, cultured 4 days
# Text: Culture media ([…] medium) used for cell culture contain amino acids necessary for cells to survive and grow. […] human skin-simulating medium 2: The essential amino acids in D-MEM (Life Technologies 21068-028) were changed to the concentrations shown in Table 10, human skin-simulating medium 2. […] The next day, the medium was replaced with the medium of evaluation condition (5)-(7). • Evaluation condition (5): Human skin-simulating medium 2 (hereinafter the sample evaluated under evaluation condition (5) is referred to as “Control 3”). • Evaluation condition (6): Medium obtained by adding His (final concentration 0.2 mM), Leu (final concentration 0.8 mM), Val (final concentration 0.8 mM) to human skin-simulating medium 2 (hereinafter the sample evaluated under evaluation condition (6) is referred to as “Example 3”). • Evaluation condition (7): Medium obtained by adding His (final concentration 0.2 mM) to human skin-simulating medium 2 (hereinafter the sample evaluated under evaluation condition (7) is referred to as “Example 4”). […] The protein extract of the above-mentioned 4 was diluted with water, and the protein was quantified using Micro BCA Protein Assay Kit (Thermo Fisher Scientific 23235). • 6. The amount of caspase-14 determined in the above-mentioned 4 was normalized by the amount of protein determined in the above-mentioned 5. • 7. […]
smiles,measurement,setting,value
"N[C@@H](Cc1c[nH]cn1)C(=O)O [His, histidine]","amount of caspase-14 (normalized by protein amount, Control 3 as 100%)","Experimental Example 2-3, FIG. 3, final His 0.2, Leu 0.8, Val 0.8 mM or His 0.2 mM alone",remarkably increased
same,"amount of caspase-14 (normalized by protein amount, Control 7 as 100%)","Experimental Example 3-3-1, FIG. 6A, final His 0.2, Leu 0.8, Val 0.8 mM, Val 0.8 mM alone or His 0.2 mM alone",remarkably increased

# — patent publication US20250352448A1, “COMPOSITION FOR IMPROVING SKIN CONDITIONS” (AJINOMOTO CO., INC., priority 2022, published 2025)
